Results from PMC6154719 (Molecules : A Journal of Synthetic Chemistry and Natural …, 2017).

Tests used:
Type in all cases: in vitro ADME
[1] = target: T1, AKR1A (Homo sapiens, UniProt P14550); experiment: AKR1A activity in human liver subcellular fraction; settings: 100 µM sesquiterpene, control 8.45 ± 0.90
T1 construct: Frozen liver (both rat and human) was thawed; from tissue; host or cells: human liver cytosolic fraction
T1 sequence (P14550 1-325): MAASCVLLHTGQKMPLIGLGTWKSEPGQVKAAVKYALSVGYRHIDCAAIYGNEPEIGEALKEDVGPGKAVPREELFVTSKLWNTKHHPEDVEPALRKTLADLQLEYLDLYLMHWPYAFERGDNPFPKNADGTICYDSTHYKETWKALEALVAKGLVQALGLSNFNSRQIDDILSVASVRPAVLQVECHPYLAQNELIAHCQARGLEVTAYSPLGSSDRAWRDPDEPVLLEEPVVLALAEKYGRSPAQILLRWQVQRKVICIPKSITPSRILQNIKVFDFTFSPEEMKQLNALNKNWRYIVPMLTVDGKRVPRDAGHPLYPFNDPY
Protocol: (§1) Enzyme activities were assayed in human and rat liver cytosolic and microsomal fractions. The enzyme assays (each performed in 4–8 replicates) were repeated three times (HPLC measurement of CYP activities was repeated only twice, Table 3). Inhibition studies were carried out by incubation of specific substrates in the presence of sesquiterpenes (in the range 0–100 µM).
(§2) The assays of all other enzymes were based on spectrophotometric detection of product formed or detection of decreasing substrate/cofactor levels using microplate reader Tecan Infinite M200 in cytosolic or microsomal fractions. Enzyme activities were determined using slight modifications of previously-published methods: carbonyl reducing enzymes (AKR1A, AKR1C, CBR1 [45], NQO1 [46]), UDP-glucuronosyltransferase (UGT [47]), sulfotransferase (SULT [48]), and cytosolic glutathione-S-transferase (GST [49]).
(§3) Sesquiterpenes CNER, TNER and FAR, non-volatile liquids, were pipetted, and proper concentration was calculated according to density. All compounds were dissolved in DMSO. The final solvent concentration in the inhibition assays was 1%, which had no effect on the enzyme activity (data not shown). Non-enzymatic interference of sesquiterpenes with some compounds in the reaction mixtures (e.g., fluorescence enhancing or quenching) was considered and excluded. All experiments were performed in three replicates, if not stated otherwise.
(§4) CNER, TNER and FAR at a fixed concentration of 100 µM were screened for inhibition of cytosolic AKR1A1, AKR1C, CBR1, NQO1, SULT, and GST, and microsomal CYPs and UGT. The degree of inhibition caused by sesquiterpenes was compared with non-inhibited control reactions, which contained solvent without sesquiterpenes.

[2] = tested on: AKR1C; experiment: AKR1C activity in human liver subcellular fraction; settings: 100 µM sesquiterpene, control 23.5 ± 2.4
Protocol: as §1, §2, §3, §4

[3] = tested on: CYP2B/3A; experiment: CYP2B/3A (BROD activity, benzyloxyresorufin O-debenzylation) in rat liver microsomes; settings: for IC50: probe benzyloxyresorufin; for Specific Activity, CYP2B/3A (BROD activity): in the presence of 100 µM sesquiterpene, control 1.74 ± 0.02
Protocol: as §1
Enzyme activities of individual CYP forms were measured according to established protocols. The following microsomal CYP activities were tested: CYP2A6, coumarin 7-hydroxylation; CYP2B6, 7-ethoxy-4-(trifluoromethyl)coumarin 7-deethylation, CYP2C9, diclofenac 4′-hydroxylation, CYP2C19 assay, S-mephenytoin 4′-hydroxylation, CYP2D6 on bufuralol 1′-hydroxylation, CYP2E1, chlorzoxazone 6-hydroxylation and CYP3A4, testosterone 6β-hydroxylation, and midazolam 1′-hydroxylation. Activities were measured using the Prominence HPLC system (Shimadzu, Kyoto, Japan), equipped with a LiChroCART 250-4 LiChrospher 100 RP-18 column or Chromolith®HighResolution RP-18 end-capped column (Merck, Darmstadt, Germany) and UV or fluorescence detection, according to the cited literature. Further incubation details are described either in the corresponding references, as well as in the papers from this laboratory e.g., [42, 43, 44]. CYP1A2, 7-ethoxyresorufin O-deethylation, and CYP3A4/2B6 (human), CYP2B1 (rat), benzyloxyresorufin O-debenzylation were measured using the microplate reader Tecan Infinite M200 (Tecan Group; Mannedorf, Switzerland).
as §3, §4
The concentration of sesquiterpenes required for 50% inhibition of enzyme activity, the IC50 value, was determined. Their final concentrations in the reaction mixture were proposed to cover the entire inhibitory range of these compounds (1–100 µM). The IC50 values for each sesquiterpene were determined by plotting sigmoidal dose response curves of specific enzyme activity vs. logarithm of sesquiterpene concentration using GraphPad Prism version 6.07 for Windows (GraphPad Software Inc., La Jolla, CA, USA).
The kinetic inactivation study of the CYP1A2 (EROD activity) and CYP2B/3A (BROD activity), both in rat and human, with TNER, was performed to find out the mechanism of enzyme inhibition by this sesquiterpene. Mechanism of EROD and BROD inhibition was tested at the final ethoxyresorufin or benzyloxyresorufin concentrations 0.5–5.0 µM. The concentration of TNER was 5.0 µM.
Experimental data were fitted to the Michaelis-Menten equation, basic kinetic parameters were determined using the program GraphPad Prism version 6.07 for Windows. The type of inhibition was estimated using a Lineweaver-Burk (double-reciprocal) plot.

[4] = tested on: SULT; experiment: SULT activity in human liver subcellular fraction; settings: 100 µM sesquiterpene, control 2.73 ± 0.18
Protocol: as §1, §2, §3, §4

[5] = tested on: UGT; experiment: UGT activity in human liver subcellular fraction; settings: 100 µM sesquiterpene, control 7.12 ± 0.35
Protocol: as §1, §2, §3, §4

[6] = target: T2, NQO1 (Rattus norvegicus, UniProt P05982); experiment: NQO1 activity in rat liver subcellular fraction; settings: 100 µM sesquiterpene, control 25.3 ± 5.6
T2 construct: Frozen liver (both rat and human) was thawed; from tissue; host or cells: rat liver cytosolic fraction
T2 sequence (P05982 2-274 limits assumed): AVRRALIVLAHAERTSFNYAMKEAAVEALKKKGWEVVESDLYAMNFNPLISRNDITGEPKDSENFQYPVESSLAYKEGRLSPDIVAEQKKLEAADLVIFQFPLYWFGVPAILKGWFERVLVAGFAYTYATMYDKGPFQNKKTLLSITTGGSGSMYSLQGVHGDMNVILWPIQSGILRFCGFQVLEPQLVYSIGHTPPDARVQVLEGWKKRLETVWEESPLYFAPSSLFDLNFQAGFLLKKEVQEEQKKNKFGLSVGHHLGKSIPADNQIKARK
Protocol: as §1, §2, §3, §4

[7] = tested on: UGT; experiment: UGT activity in rat liver subcellular fraction; settings: 100 µM sesquiterpene, control 16.2 ± 0.98
Protocol: as §1, §2, §3, §4

[8] = target: T3, NQO1 (Homo sapiens, UniProt P15559); experiment: NQO1 activity in human liver subcellular fraction; settings: 100 µM sesquiterpene, control 6.38 ± 0.34
T3 construct: Frozen liver (both rat and human) was thawed; from tissue; host or cells: human liver cytosolic fraction
T3 sequence (P15559 whole entry): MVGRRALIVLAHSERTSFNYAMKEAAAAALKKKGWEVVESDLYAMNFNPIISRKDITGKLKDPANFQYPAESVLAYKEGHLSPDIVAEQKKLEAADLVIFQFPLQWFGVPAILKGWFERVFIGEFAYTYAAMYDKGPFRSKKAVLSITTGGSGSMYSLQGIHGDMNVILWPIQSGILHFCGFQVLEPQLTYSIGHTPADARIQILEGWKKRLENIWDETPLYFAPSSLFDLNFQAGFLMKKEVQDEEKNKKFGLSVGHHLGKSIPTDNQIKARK
Protocol: as §1, §2, §3, §4

[9] = tested on: GST; experiment: GST activity in human liver subcellular fraction; settings: 100 µM sesquiterpene, control 223 ± 19
Protocol: as §1, §2, §3, §4

C=CC(C)(O)CC/C=C(/C)CCC=C(C)C (stereo not drawn) [CNER, cis-nerolidol] was tested, and the “Specific activity, AKR1A” value [1] was 6.88 ± 0.29 nmol/mg/min, the “Specific activity, AKR1C” value [2] was 22.7 ± 1.5 nmol/mg/min and the IC50 ([3]; rat liver microsomes) was 6.47 µM. For the same compound, the “Specific Activity, CYP2B/3A (BROD activity)” value (“Specific Activity, CYP2B/3A” for short) ([3]; rat liver microsomes) was 0.331 ± 0.009 pmol/mg/min, the “Specific activity, SULT” value [4] was 3.12 ± 0.29 nmol/mg/min and the “Specific activity, UGT” value [5] was 7.09 ± 0.34 nmol/mg/min. For the same compound, the “Specific activity, NQO1” value [6] was 21.7 ± 3.6 nmol/mg/min, the “Specific activity, UGT” value [7] was 15.9 ± 1.11 nmol/mg/min and the “Specific activity, NQO1” value [8] was 5.44 ± 0.82 nmol/mg/min. The “Specific activity, GST” value [9] was 209 ± 10 nmol/mg/min.

With CC(C)=CCC/C(C)=C/CC/C(C)=C/CO [FAR, farnesol] the “Specific activity, AKR1A” value [1] was 7.62 ± 0.30 nmol/mg/min, the “Specific activity, AKR1C” value [2] was 24.0 ± 1.5 nmol/mg/min and the IC50 ([3]; rat liver microsomes) was 4.43 µM. For the same compound, the “Specific Activity, CYP2B/3A” value ([3]; rat liver microsomes) was 0.212 ± 0.003 pmol/mg/min, the “Specific activity, SULT” value [4] was 2.72 ± 0.23 nmol/mg/min and the “Specific activity, UGT” value [5] was 7.49 ± 1.08 nmol/mg/min. For the same compound, the “Specific activity, NQO1” value [6] was 22.2 ± 3.3 nmol/mg/min, the “Specific activity, UGT” value [7] was 14.3 ± 3.15 nmol/mg/min and the “Specific activity, NQO1” value [8] was 5.23 ± 1.03 nmol/mg/min. The “Specific activity, GST” value [9] was 181 ± 13 nmol/mg/min.

C=CC(C)(O)CC/C=C(\C)CCC=C(C)C (stereo not drawn) [TNER, trans-nerolidol] was tested, and the “Specific activity, AKR1A” value [1] was 6.75 ± 0.22 nmol/mg/min, the “Specific activity, AKR1C” value [2] was 21.4 ± 1.0 nmol/mg/min and the IC50 ([3]; rat liver microsomes) was 5.11 µM. For the same compound, the “K’M” value ([3]; rat liver microsomes, benzyloxyresorufin 0.5–5.0 µM in the presence of TNER 5 µM, KM without TNER 0.74 ± 0.12) was 1.26 ± 0.39 µM, the “V’MAX” value ([3]; rat liver microsomes, benzyloxyresorufin 0.5–5.0 µM in the presence of TNER 5 µM, VMAX without TNER 7.04 ± 0.35) was 0.81 ± 0.09 nM/min and the “Specific Activity, CYP2B/3A” value ([3]; rat liver microsomes) was 0.153 ± 0.008 pmol/mg/min. The “type of inhibition, BROD activity” value ([3]; rat microsomes, 5 µM TNER, benzyloxyresorufin 0.5–5.0 µM) was “non-competitive”, the “Specific activity, SULT” value [4] was 3.20 ± 0.26 nmol/mg/min and the “Specific activity, UGT” value [5] was 7.08 ± 0.39 nmol/mg/min. For the same compound, the “Specific activity, NQO1” value [6] was 21.8 ± 2.4 nmol/mg/min, the “Specific activity, UGT” value [7] was 16.4 ± 2.46 nmol/mg/min and the “Specific activity, NQO1” value [8] was 5.53 ± 0.51 nmol/mg/min. The “Specific activity, GST” value [9] was 235 ± 13 nmol/mg/min.
